In patent US12427157B2, “Methods for treatment of diseases involving acidic or hypoxic diseased tissues” (Cybrexa 1, Inc., priority 2018, dated 2025):
Residues, ends and D or L forms follow the SMILES beside them. *: point of attachment. X23 = COC(=O)[C@@H](CS*)OC(=O)N(C)Cc1ccc(-c2[nH]c3cc(F)cc4c3c2CCNC4=O)cc1; X24 = CN(Cc1ccc(-c2[nH]c3cc(F)cc4c3c2CCNC4=O)cc1)C(=O)O[C@H](CS*)c1ccccc1; X10 = Cc1cc(COC(=O)N(C)Cc2ccc(-c3[nH]c4cc(F)cc5c4c3CCNC5=O)cc2)ccc1S*; X25 = COC[C@@H](CS*)OC(=O)N(C)Cc1ccc(-c2[nH]c3cc(F)cc4c3c2CCNC4=O)cc1; X3 = CN(Cc1ccc(-c2[nH]c3cc(F)cc4c3c2CCNC4=O)cc1)C(=O)OCc1ccc(S*)cc1; X9 = C[C@@H](COC(=O)N(C)Cc1ccc(-c2[nH]c3cc(F)cc4c3c2CCNC4=O)cc1)S*

Biological target: PARP (Homo sapiens, UniProt P09874)
Sequence (P09874 whole entry): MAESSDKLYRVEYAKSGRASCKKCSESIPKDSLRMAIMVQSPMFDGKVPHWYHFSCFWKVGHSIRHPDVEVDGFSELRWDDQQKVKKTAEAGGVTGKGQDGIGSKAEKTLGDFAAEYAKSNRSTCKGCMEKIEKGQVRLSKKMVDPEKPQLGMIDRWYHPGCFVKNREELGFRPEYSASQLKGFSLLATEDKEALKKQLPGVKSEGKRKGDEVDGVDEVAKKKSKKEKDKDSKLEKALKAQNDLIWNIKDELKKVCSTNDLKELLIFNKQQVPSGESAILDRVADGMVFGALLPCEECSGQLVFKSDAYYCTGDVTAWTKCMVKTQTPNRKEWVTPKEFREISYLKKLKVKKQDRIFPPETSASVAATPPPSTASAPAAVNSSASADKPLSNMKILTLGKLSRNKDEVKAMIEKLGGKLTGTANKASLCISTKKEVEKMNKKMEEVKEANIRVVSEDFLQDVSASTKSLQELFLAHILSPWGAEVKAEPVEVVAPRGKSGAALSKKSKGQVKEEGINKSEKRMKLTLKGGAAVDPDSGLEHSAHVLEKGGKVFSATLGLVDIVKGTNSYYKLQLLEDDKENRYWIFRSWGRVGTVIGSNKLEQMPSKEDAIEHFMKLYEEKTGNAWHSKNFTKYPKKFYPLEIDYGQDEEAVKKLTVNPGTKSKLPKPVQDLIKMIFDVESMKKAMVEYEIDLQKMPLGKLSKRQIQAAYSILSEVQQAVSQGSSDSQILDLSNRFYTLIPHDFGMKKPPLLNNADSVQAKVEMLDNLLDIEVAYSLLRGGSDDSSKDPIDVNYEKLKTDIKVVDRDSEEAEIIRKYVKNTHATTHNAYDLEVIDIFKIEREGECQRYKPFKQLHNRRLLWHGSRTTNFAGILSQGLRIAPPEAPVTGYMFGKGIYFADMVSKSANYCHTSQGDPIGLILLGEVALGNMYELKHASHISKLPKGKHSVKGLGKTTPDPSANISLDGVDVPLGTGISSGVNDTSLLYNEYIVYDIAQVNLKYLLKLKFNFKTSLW
Experiment: Enzymatic Assay 2: HT Universal Chemiluminescent PARP Assay of cleaved compounds;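 also: PARP reaction with activated DNA run 1 h at room temperature, product detected via streptavidin-HRP and luminescence endpoint reading on a plate reader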
Details: read-out: IC50 Enzymatic Assay 2; Examples cleaved per Example A (crude cleavage solution); R^8H starting materials as such

Row | Compound | IC50
1 | CC[C@H](C)[C@H](NC(=O)[C@@H]1CCCN1C(=O)[C@H](CC(N)=O)NC(=O)[C@H](CCC(N)=O)NC(=O)[C@H](CCC(=O)O)NC(=O)[C@H](C)N)C(=O)N[C@@H](Cc1ccc(O)cc1)C(=O)N[C@@H](Cc1c[nH]c2ccccc12)C(=O)N[C@@H](C)C(=O)N[C@@H](CCCNC(=N)N)C(=O)N[C@@H](Cc1ccc(O)cc1)C(=O)N[C@@H](C)C(=O)N[C@@H](CC(=O)O)C(=O)N[C@@H](Cc1c[nH]c2ccccc12)C(=O)N[C@@H](CC(C)C)C(=O)N[C@@H](Cc1ccccc1)C(=O)N[C@H](C(=O)N[C@H](C(=O)N1CCC[C@H]1C(=O)N[C@@H](CC(C)C)C(=O)N[C@@H](CC(C)C)C(=O)N[C@@H](CC(C)C)C(=O)N[C@@H](CC(C)C)C(=O)N[C@@H](CC(=O)O)C(=O)N[C@@H](CC(C)C)C(=O)N[C@@H](C)C(=O)N[C@@H](CC(C)C)C(=O)N[C@@H](CC(C)C)C(=O)N[C@H](C(=O)N[C@@H](CC(=O)O)C(=O)N[C@@H](C)C(=O)N[C@@H](CC(=O)O)C(=O)N[C@@H](CCC(=O)O)C(=O)N[C@@H](CSS[C@@H](C)COC(=O)N(C)Cc1ccc(-c2[nH]c3cc(F)cc4c3c2CCNC4=O)cc1)C(=O)NCC(=O)O)C(C)C)[C@@H](C)O)[C@@H](C)O [Example 22] (H-AEQNPIYWARYADWLFTTPLLLLDLALLVDADEC(X9)G-OH; N-terminus and C-terminus assumed) | 1.8 nM
2 | CC(C)C[C@H](NC(=O)[C@H](Cc1ccc(O)cc1)NC(=O)[C@H](C)NC(=O)[C@H](CCCNC(=N)N)NC(=O)[C@H](Cc1c[nH]c2ccccc12)NC(=O)[C@@H]1CCCN1C(=O)[C@H](CC(N)=O)NC(=O)[C@H](CCC(N)=O)NC(=O)[C@H](CC(=O)O)NC(=O)[C@H](CC(=O)O)NC(=O)[C@H](C)N)C(=O)N[C@@H](CC(=O)O)C(=O)N[C@@H](CC(C)C)C(=O)N[C@@H](CC(C)C)C(=O)N[C@@H](Cc1ccccc1)C(=O)N1CCC[C@H]1C(=O)N[C@H](C(=O)N[C@@H](CC(=O)O)C(=O)N[C@H](C(=O)N[C@@H](CC(C)C)C(=O)N[C@@H](CC(C)C)C(=O)N[C@@H](CC(C)C)C(=O)N[C@@H](CC(=O)O)C(=O)N[C@@H](CC(C)C)C(=O)N[C@@H](CC(C)C)C(=O)N[C@@H](Cc1c[nH]c2ccccc12)C(=O)N[C@@H](CC(=O)O)C(=O)N[C@@H](C)C(=O)N[C@@H](CC(=O)O)C(=O)N[C@@H](CCC(=O)O)C(=O)N[C@@H](CSS[C@@H](C)COC(=O)N(C)Cc1ccc(-c2[nH]c3cc(F)cc4c3c2CCNC4=O)cc1)C(=O)NCC(=O)O)[C@@H](C)O)[C@@H](C)O [Example 23] | 2.5 nM
3 | CC[C@H](C)[C@H](NC(=O)[C@@H]1CCCN1C(=O)[C@H](CC(N)=O)NC(=O)[C@H](CCC(N)=O)NC(=O)[C@H](CCC(=O)O)NC(=O)[C@H](C)N)C(=O)N[C@@H](Cc1ccc(O)cc1)C(=O)N[C@@H](Cc1c[nH]c2ccccc12)C(=O)N[C@@H](C)C(=O)N[C@@H](CCCNC(=N)N)C(=O)N[C@@H](Cc1ccc(O)cc1)C(=O)N[C@@H](C)C(=O)N[C@@H](CC(=O)O)C(=O)N[C@@H](Cc1c[nH]c2ccccc12)C(=O)N[C@@H](CC(C)C)C(=O)N[C@@H](Cc1ccccc1)C(=O)N[C@H](C(=O)N[C@H](C(=O)N1CCC[C@H]1C(=O)N[C@@H](CC(C)C)C(=O)N[C@@H](CC(C)C)C(=O)N[C@@H](CC(C)C)C(=O)N[C@@H](CC(C)C)C(=O)N[C@@H](CC(=O)O)C(=O)N[C@@H](CC(C)C)C(=O)N[C@@H](C)C(=O)N[C@@H](CC(C)C)C(=O)N[C@@H](CC(C)C)C(=O)N[C@H](C(=O)N[C@@H](CC(=O)O)C(=O)N[C@@H](C)C(=O)N[C@@H](CC(=O)O)C(=O)N[C@@H](CCC(=O)O)C(=O)N[C@@H](CSSC[C@@H](OC(=O)N(C)Cc1ccc(-c2[nH]c3cc(F)cc4c3c2CCNC4=O)cc1)c1ccccc1)C(=O)NCC(=O)O)C(C)C)[C@@H](C)O)[C@@H](C)O [Example 25] (H-AEQNPIYWARYADWLFTTPLLLLDLALLVDADEC(X24)G-OH; N-terminus and C-terminus assumed) | 3.4 nM
4 | CC[C@H](C)[C@H](NC(=O)[C@@H]1CCCN1C(=O)[C@H](CC(N)=O)NC(=O)[C@H](CCC(N)=O)NC(=O)[C@H](CCC(=O)O)NC(=O)[C@H](C)N)C(=O)N[C@@H](Cc1ccc(O)cc1)C(=O)N[C@@H](Cc1c[nH]c2ccccc12)C(=O)N[C@@H](C)C(=O)N[C@@H](CCCNC(=N)N)C(=O)N[C@@H](Cc1ccc(O)cc1)C(=O)N[C@@H](C)C(=O)N[C@@H](CC(=O)O)C(=O)N[C@@H](Cc1c[nH]c2ccccc12)C(=O)N[C@@H](CC(C)C)C(=O)N[C@@H](Cc1ccccc1)C(=O)N[C@H](C(=O)N[C@H](C(=O)N1CCC[C@H]1C(=O)N[C@@H](CC(C)C)C(=O)N[C@@H](CC(C)C)C(=O)N[C@@H](CC(C)C)C(=O)N[C@@H](CC(C)C)C(=O)N[C@@H](CC(=O)O)C(=O)N[C@@H](CC(C)C)C(=O)N[C@@H](C)C(=O)N[C@@H](CC(C)C)C(=O)N[C@@H](CC(C)C)C(=O)N[C@H](C(=O)N[C@@H](CC(=O)O)C(=O)N[C@@H](C)C(=O)N[C@@H](CC(=O)O)C(=O)N[C@@H](CCC(=O)O)C(=O)N[C@@H](CSSC[C@@H](OC(=O)N(C)Cc1ccc(-c2[nH]c3cc(F)cc4c3c2CCNC4=O)cc1)C(=O)OC)C(=O)NCC(=O)O)C(C)C)[C@@H](C)O)[C@@H](C)O [Example 26] (H-AEQNPIYWARYADWLFTTPLLLLDLALLVDADEC(X23)G-OH; N-terminus and C-terminus assumed) | 2 nM
5 | CC[C@H](C)[C@H](NC(=O)[C@@H]1CCCN1C(=O)[C@H](CC(N)=O)NC(=O)[C@H](CCC(N)=O)NC(=O)[C@H](CCC(=O)O)NC(=O)[C@H](C)N)C(=O)N[C@@H](Cc1ccc(O)cc1)C(=O)N[C@@H](Cc1c[nH]c2ccccc12)C(=O)N[C@@H](C)C(=O)N[C@@H](CCCNC(=N)N)C(=O)N[C@@H](Cc1ccc(O)cc1)C(=O)N[C@@H](C)C(=O)N[C@@H](CC(=O)O)C(=O)N[C@@H](Cc1c[nH]c2ccccc12)C(=O)N[C@@H](CC(C)C)C(=O)N[C@@H](Cc1ccccc1)C(=O)N[C@H](C(=O)N[C@H](C(=O)N1CCC[C@H]1C(=O)N[C@@H](CC(C)C)C(=O)N[C@@H](CC(C)C)C(=O)N[C@@H](CC(C)C)C(=O)N[C@@H](CC(C)C)C(=O)N[C@@H](CC(=O)O)C(=O)N[C@@H](CC(C)C)C(=O)N[C@@H](C)C(=O)N[C@@H](CC(C)C)C(=O)N[C@@H](CC(C)C)C(=O)N[C@H](C(=O)N[C@@H](CC(=O)O)C(=O)N[C@@H](C)C(=O)N[C@@H](CC(=O)O)C(=O)N[C@@H](CCC(=O)O)C(=O)N[C@@H](CSSC[C@H](COC)OC(=O)N(C)Cc1ccc(-c2[nH]c3cc(F)cc4c3c2CCNC4=O)cc1)C(=O)NCC(=O)O)C(C)C)[C@@H](C)O)[C@@H](C)O [Example 27] (H-AEQNPIYWARYADWLFTTPLLLLDLALLVDADEC(X25)G-OH; N-terminus and C-terminus assumed) | 3.9 nM
6 | CC[C@H](C)[C@H](NC(=O)[C@@H]1CCCN1C(=O)[C@H](CC(N)=O)NC(=O)[C@H](CCC(N)=O)NC(=O)[C@H](CCC(=O)O)NC(=O)[C@H](C)N)C(=O)N[C@@H](Cc1ccc(O)cc1)C(=O)N[C@@H](Cc1c[nH]c2ccccc12)C(=O)N[C@@H](C)C(=O)N[C@@H](CCCNC(=N)N)C(=O)N[C@@H](Cc1ccc(O)cc1)C(=O)N[C@@H](C)C(=O)N[C@@H](CC(=O)O)C(=O)N[C@@H](Cc1c[nH]c2ccccc12)C(=O)N[C@@H](CC(C)C)C(=O)N[C@@H](Cc1ccccc1)C(=O)N[C@H](C(=O)N[C@H](C(=O)N1CCC[C@H]1C(=O)N[C@@H](CC(C)C)C(=O)N[C@@H](CC(C)C)C(=O)N[C@@H](CC(C)C)C(=O)N[C@@H](CC(C)C)C(=O)N[C@@H](CC(=O)O)C(=O)N[C@@H](CC(C)C)C(=O)N[C@@H](C)C(=O)N[C@@H](CC(C)C)C(=O)N[C@@H](CC(C)C)C(=O)N[C@H](C(=O)N[C@@H](CC(=O)O)C(=O)N[C@@H](C)C(=O)N[C@@H](CC(=O)O)C(=O)N[C@@H](CCC(=O)O)C(=O)N[C@@H](CSSc1ccc(COC(=O)N(C)Cc2ccc(-c3[nH]c4cc(F)cc5c4c3CCNC5=O)cc2)cc1)C(=O)NCC(=O)O)C(C)C)[C@@H](C)O)[C@@H](C)O [Example 28] (H-AEQNPIYWARYADWLFTTPLLLLDLALLVDADEC(X3)G-OH; N-terminus and C-terminus assumed) | 2.4 nM
7 | CC[C@H](C)[C@H](NC(=O)[C@@H]1CCCN1C(=O)[C@H](CC(N)=O)NC(=O)[C@H](CCC(N)=O)NC(=O)[C@H](CCC(=O)O)NC(=O)[C@H](C)N)C(=O)N[C@@H](Cc1ccc(O)cc1)C(=O)N[C@@H](Cc1c[nH]c2ccccc12)C(=O)N[C@@H](C)C(=O)N[C@@H](CCCNC(=N)N)C(=O)N[C@@H](Cc1ccc(O)cc1)C(=O)N[C@@H](C)C(=O)N[C@@H](CC(=O)O)C(=O)N[C@@H](Cc1c[nH]c2ccccc12)C(=O)N[C@@H](CC(C)C)C(=O)N[C@@H](Cc1ccccc1)C(=O)N[C@H](C(=O)N[C@H](C(=O)N1CCC[C@H]1C(=O)N[C@@H](CC(C)C)C(=O)N[C@@H](CC(C)C)C(=O)N[C@@H](CC(C)C)C(=O)N[C@@H](CC(C)C)C(=O)N[C@@H](CC(=O)O)C(=O)N[C@@H](CC(C)C)C(=O)N[C@@H](C)C(=O)N[C@@H](CC(C)C)C(=O)N[C@@H](CC(C)C)C(=O)N[C@H](C(=O)N[C@@H](CC(=O)O)C(=O)N[C@@H](C)C(=O)N[C@@H](CC(=O)O)C(=O)N[C@@H](CCC(=O)O)C(=O)N[C@@H](CSSc1ccc(COC(=O)N(C)Cc2ccc(-c3[nH]c4cc(F)cc5c4c3CCNC5=O)cc2)cc1C)C(=O)NCC(=O)O)C(C)C)[C@@H](C)O)[C@@H](C)O [Example 29] (H-AEQNPIYWARYADWLFTTPLLLLDLALLVDADEC(X10)G-OH; N-terminus and C-terminus assumed) | 6.4 nM
